Data reported in article PMC4013070, “The Imaging of Insulinomas Using a Radionuclide-Labelled Molecule of the GLP-1 Analogue Liraglutide: A New Application of Liraglutide” (PLoS ONE, 2014).

Key:
[1] = In vitro stability in fetal bovine serum; format: in vitro ADME; conditions: 37°C, 0 h
[2] = tested on: INS-1 insulinoma xenograft; experiment: In vivo distribution of radioactivity across organs in nude mouse insulinoma model; design: species or system BALB/c nude mice; conditions: 90 min after injection of approx. 100 µCi, from %ID/g, mean ± SD, N = 3
Procedure: (§1) A total of 24 nude mice were each subcutaneously injected in the armpit of the right upper limb with 100 µl of a suspension of INS-1 cells (containing approximately 10^7 cells per 100 µl). The nude mice were reared under conventional sterile conditions and given 5% dextrose injections as drinking water (Shanghai Changzheng Fumin Jinshan Pharmaceutical, Shanghai, China). Their blood glucose levels were monitored every 2–3 days with a glucometer (Accu-Chek Integra integrated blood glucose meter, Roche, Berlin, Germany), and all measured blood glucose levels were at least 3 mmol/L.
Six nude mice each received a 100 µl injection containing approximately 100 µCi of ^125I-liraglutide. At 90 min and 360 min after this injection, 3 mice were sacrificed by cervical dislocation. First, blood was collected from the heart; next, isolated various organs and tissues, including the heart, lungs, liver, stomach, kidneys, spleen, small intestine, and pancreas, as well as muscle tissue and the tumour; the isolated samples were then placed into tubes that were impervious to γ radiation and weighed. For each tube, the radioactivity in counts per minute was then measured by a γ counter. The results were presented in terms of %ID/g (the percentage of the total injected dose of radioactivity per gram of tissue). Histograms of %ID/g for various organs at the 90 min and 360 min time points were plotted.

[3] = tested on: INS-1 insulinoma xenograft; experiment: In vivo blocking experiment with unlabelled liraglutide (biodistribution); design: species or system BALB/c nude mice; conditions: 100 µg unlabelled liraglutide i.v. 30 min before approx. 100 µCi tracer, 90 min, p<0.05, N = 3
Procedure: as §1
In this experiment, 100 µl of liraglutide solution containing 100 µg of unlabelled liraglutide, was injected into the tail veins of each of 3 nude mice with insulinoma. Half an hour later, 100 µl of ^125I-liraglutide solution containing approximately 100 µCi of ^125I-liraglutide was injected into the tail vein of each mouse. To create an unblocked experimental group that corresponded with this blocked group, 100 µl of ^125I-liraglutide solution containing approximately 100 µCi of ^125I-liraglutide was injected into the tail veins of each of 3 more nude mice with insulinoma. These six nude mice with insulinoma were sacrificed by cervical dislocation at 90 min after the ^125I-liraglutide injection. First, blood was collected from the heart and various organs and tissues were isolated; the isolated samples were then placed into tubes that were impervious to γ radiation and weighed. For each tube, the radioactivity in counts per minute was then measured by a γ counter. The results were presented in terms of %ID/g. A histogram of %ID/g for various organs at the 90 min time point in the blocked and unblocked groups was plotted.

[4] = cited from earlier work
GLP-1 receptors = target: GLP-1 receptors; design: method as in PMID 23652208; conditions: Rin-m5f insulinoma cells, earlier exendin-4 imaging study of the authors; cited from earlier work
[5] = in vivo; cited from earlier work
Excerpt: This approach can be utilised for qualitative diagnoses, accurate staging, and evaluation of treatment efficacy. However, the detection rate of SSTR imaging for insulinoma is not high. […] This limited utility is because in tumours, among the five subtypes of SSTRs (SSTR1-SSTR5), radionucli ...

For `CCCCCCCCCCCCCCCC(=O)N[C@@H](CCC(=O)NCCCC[C@H](NC(=O)[C@H](C)NC(=O)[C@H](C)NC(=O)[C@H](CCC(N)=O)NC(=O)CNC(=O)[C@H](CCC(=O)O)NC(=O)[C@H](CC(C)C)NC(=O)[C@H](Cc1ccc(O)c(I)c1)NC(=O)[C@H](CO)NC(=O)[C@H](CO)NC(=O)[C@@H](NC(=O)[C@H](CC(=O)O)NC(=O)[C@H](CO)NC(=O)[C@@H](NC(=O)[C@H](Cc1ccccc1)NC(=O)[C@@H](NC(=O)CNC(=O)[C@H](CCC(=O)O)NC(=O)[C@H](C)NC(=O)[C@@H](N)Cc1c[nH]cn1)[C@@H](C)O)[C@@H](C)O)C(C)C)C(=O)N[C@@H](CCC(=O)O)C(=O)N[C@@H](Cc1ccccc1)C(=O)N[C@H](C(=O)N[C@@H](C)C(=O)N[C@@H](Cc1c[nH]c2ccccc12)C(=O)N[C@@H](CC(C)C)C(=O)N[C@H](C(=O)N[C@@H](CCCNC(=N)N)C(=O)NCC(=O)N[C@@H](CCCNC(=N)N)C(=O)NCC(=O)O)C(C)C)[C@@H](C)CC)C(=O)O` [125I-liraglutide], the “intact peptide in fetal bovine serum” value [1] was 92.9%, the “T/NT ratio, tumour to muscle tissue” value [2] was 4.83±1.30 and the “T/NT ratio, tumour to pancreatic tissue” value [2] was 2.73±0.80. For the same compound, the “radioactivity (%ID/g) of the lungs after blocking” value [3] was “significantly decreased”, the “radioactivity (%ID/g) of the pancreas after blocking” value [3] was “significantly decreased” and the “radioactivity (%ID/g) of the tumour after blocking” value [3] was “significantly reduced”.

In the case of `CCCCCCCCCCCCCCCC(=O)N[C@@H](CCC(=O)NCCCC[C@H](NC(=O)[C@H](C)NC(=O)[C@H](C)NC(=O)[C@H](CCC(N)=O)NC(=O)CNC(=O)[C@H](CCC(=O)O)NC(=O)[C@H](CC(C)C)NC(=O)[C@H](Cc1ccc(O)cc1)NC(=O)[C@H](CO)NC(=O)[C@H](CO)NC(=O)[C@@H](NC(=O)[C@H](CC(=O)O)NC(=O)[C@H](CO)NC(=O)[C@@H](NC(=O)[C@H](Cc1ccccc1)NC(=O)[C@@H](NC(=O)CNC(=O)[C@H](CCC(=O)O)NC(=O)[C@H](C)NC(=O)[C@@H](N)Cc1cnc[nH]1)[C@@H](C)O)[C@@H](C)O)C(C)C)C(=O)N[C@@H](CCC(=O)O)C(=O)N[C@@H](Cc1ccccc1)C(=O)N[C@H](C(=O)N[C@@H](C)C(=O)N[C@@H](Cc1c[nH]c2ccccc12)C(=O)N[C@@H](CC(C)C)C(=O)N[C@H](C(=O)N[C@@H](CCCNC(=N)N)C(=O)NCC(=O)N[C@@H](CCCNC(=N)N)C(=O)NCC(=O)O)C(C)C)[C@@H](C)CC)C(=O)O` [liraglutide], the in vivo half-life [4] is listed as “up to 13 h”.

For Exendin-4, the IC50 (GLP-1 receptors) is listed as 0.35 to 2.81 nM and the Kd (GLP-1 receptors) is listed as 56.6 nM.

For Glucagon-like peptide-1 [GLP-1], the serum half-life [5] is listed as “less than 2 min”.
